From PMC9710212 (Chemical Science, 2022)
Peptide text beside a SMILES is read from it. * marks the point of attachment. Cbz = O=C(OCc1ccccc1)*

Key:
PARP16ΔTM = target: T1, PARP16ΔTM (Homo sapiens, UniProt Q8N5Y8); assay: in vitro MARylation assay; type: biochemical
T1 sequence (Q8N5Y8 1-287 limits assumed): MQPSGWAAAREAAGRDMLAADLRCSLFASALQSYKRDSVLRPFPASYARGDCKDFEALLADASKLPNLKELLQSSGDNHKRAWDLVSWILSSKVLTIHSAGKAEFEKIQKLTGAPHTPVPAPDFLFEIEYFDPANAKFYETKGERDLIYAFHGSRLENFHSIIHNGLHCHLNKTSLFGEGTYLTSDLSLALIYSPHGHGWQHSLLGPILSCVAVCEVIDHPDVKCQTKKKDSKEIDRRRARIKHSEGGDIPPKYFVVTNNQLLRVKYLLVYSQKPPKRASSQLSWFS

PARP1 [1] = target: T2, PARP1 (Homo sapiens, UniProt P09874); assay: PASTA biochemical plate assay
T2 sequence (P09874 whole entry): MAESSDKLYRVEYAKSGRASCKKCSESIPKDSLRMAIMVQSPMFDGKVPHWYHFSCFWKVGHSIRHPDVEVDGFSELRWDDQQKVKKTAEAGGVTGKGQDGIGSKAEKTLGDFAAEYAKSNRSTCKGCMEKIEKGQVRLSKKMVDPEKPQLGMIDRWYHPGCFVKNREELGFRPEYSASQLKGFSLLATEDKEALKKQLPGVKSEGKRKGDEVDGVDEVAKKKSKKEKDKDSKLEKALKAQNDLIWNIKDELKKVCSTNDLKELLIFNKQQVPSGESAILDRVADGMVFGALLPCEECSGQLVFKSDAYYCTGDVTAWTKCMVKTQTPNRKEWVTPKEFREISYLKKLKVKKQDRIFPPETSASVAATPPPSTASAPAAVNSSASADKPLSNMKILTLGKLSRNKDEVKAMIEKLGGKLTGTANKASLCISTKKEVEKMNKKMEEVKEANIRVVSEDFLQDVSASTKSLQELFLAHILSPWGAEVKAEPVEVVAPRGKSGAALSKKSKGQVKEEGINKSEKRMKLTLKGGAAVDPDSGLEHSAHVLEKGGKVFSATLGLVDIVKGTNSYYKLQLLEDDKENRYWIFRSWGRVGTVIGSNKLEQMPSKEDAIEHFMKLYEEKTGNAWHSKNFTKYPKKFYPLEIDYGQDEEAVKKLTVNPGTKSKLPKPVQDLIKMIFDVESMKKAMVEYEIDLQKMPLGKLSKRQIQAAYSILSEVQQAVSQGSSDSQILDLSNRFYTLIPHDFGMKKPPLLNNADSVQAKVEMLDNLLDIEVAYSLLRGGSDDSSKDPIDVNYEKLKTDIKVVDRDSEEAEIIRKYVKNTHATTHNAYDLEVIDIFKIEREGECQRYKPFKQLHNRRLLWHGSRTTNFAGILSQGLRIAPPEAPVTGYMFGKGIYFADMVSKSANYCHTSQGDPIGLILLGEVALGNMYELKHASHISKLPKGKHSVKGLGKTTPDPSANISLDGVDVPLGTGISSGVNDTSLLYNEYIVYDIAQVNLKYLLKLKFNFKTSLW

PARP1 [2] = target: T2, PARP1; assay: Cellular PARylation assay in HEK 293T cells; type: cell-based
SUMO-PARP16ΔTM = target: T3, SUMO-PARP16ΔTM (Homo sapiens, UniProt Q8N5Y8); assay: Whole-protein electrospray ionization; type: binding; conditions: 50- or 100-fold excess of HJ-52
T3 sequence (Q8N5Y8 1-287 limits assumed): T1 sequence (Q8N5Y8 1-287 limits assumed)

PARP16 [3] = target: T4, PARP16 (Homo sapiens, UniProt Q8N5Y8); assay: Nutrient starvation; type: cell-based; conditions: HAP1 WT, HBSS 16 h; for effect on PARP16 levels under amino acid and serum starvation: 10 μM MG132, 1 μM bafilomycin A1, 50 μM chloroquine
T4 sequence (Q8N5Y8 1-322): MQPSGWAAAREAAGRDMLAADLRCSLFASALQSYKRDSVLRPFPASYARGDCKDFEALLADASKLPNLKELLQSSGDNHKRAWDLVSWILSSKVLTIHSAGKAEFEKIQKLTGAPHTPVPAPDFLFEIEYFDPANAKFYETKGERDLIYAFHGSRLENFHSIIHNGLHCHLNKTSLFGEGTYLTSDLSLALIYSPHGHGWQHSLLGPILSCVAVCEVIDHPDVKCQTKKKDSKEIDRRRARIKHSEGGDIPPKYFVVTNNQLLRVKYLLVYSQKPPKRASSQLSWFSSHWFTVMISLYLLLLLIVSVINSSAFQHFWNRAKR

PARP16 [4] = conditions: cited from earlier work
PARP16 [5] = target: T4, PARP16; assay: In vitro competition assay of DB008 labeling; type: binding; conditions: 1 μM competitor, 40 min, then DB008 20 min

SMILES: C=CC(=O)N1CCN(C(=O)c2cc(Cc3n[nH]c(=O)c4ccccc34)ccc2F)CC1 [HJ-52, 4-(3-(4-acryloylpiperazine-1-carbonyl)-4-fluorobenzyl)phthalazin-1(2H)-one]
- IC50 (PARP16ΔTM): 1.18 µM
- fold more potent against PARP16 than olaparib (PARP16ΔTM): about 2.5 fold
- IC50 (PARP1 [1]): 0.019 µM
- potency against PARP1 relative to olaparib (PARP1 [1]): equipotent
- potency against PARP1 in cellular PARylation assay (PARP1 [2]): low nanomolar potency
- covalent complex formation with SUMO-PARP16ΔTM (SUMO-PARP16ΔTM): 1 : 1 covalent complex

SMILES: CC(C)C[C@@H](C=O)NC(=O)[C@H](CC(C)C)NC(=O)[C@H](CC(C)C)NC(=O)OCc1ccccc1 [MG132] (Cbz-Leu-Leu-Leu-aldehyde)
- effect on PARP16 levels under amino acid and serum starvation (PARP16 [3]): did not impact PARP16 levels

SMILES: CO/C1=C\C(C)=C\[C@@H](C)[C@@H](O)[C@@H](C)C/C(C)=C/C=C/[C@H](OC)[C@@H]([C@@H](C)[C@@H](O)[C@H](C)[C@@]2(O)C[C@@H](O)[C@H](C)[C@@H](C(C)C)O2)OC1=O [bafilomycin A1]
- effect on PARP16 levels under amino acid and serum starvation (PARP16 [3]): did not impact PARP16 levels

SMILES: CCN(CC)CCCC(C)Nc1ccnc2cc(Cl)ccc12 (centres unmarked) [chloroquine]
- effect on PARP16 levels under amino acid and serum starvation (PARP16 [3]): did not impact PARP16 levels

SMILES: Cn1ncnc1[C@H]1c2n[nH]c(=O)c3cc(F)cc(c23)N[C@@H]1c1ccc(F)cc1 [talazoparib]
- competition of DB008 labeling (PARP16 [5]): ~70%
- effect on PARP16 levels in RIPA-soluble fraction (PARP16 [3]): increased, dose dependently
- effect on starvation-induced increase of PARP16 in RIPA-insoluble fraction (PARP16 [3]): counteracted in a dose-dependent manner
- inhibition of recombinant PARP16 (PARP16 [4]): sub-micromolar potency
